Square brackets hold non-standard residues; d marks the D form. Peptide text beside a SMILES is read from it. * marks the point of attachment. Nle = CCCC[C@H](N)C(=O)O; Cbz = O=C(OCc1ccccc1)*
What was measured:
[1] = tested on: T47D:A18 breast cancer cells; assay: z-Leu-Leu-Nle-CHO plus Paclitaxel, growth inhibition of T47D:A18 cells; assay type: cell-based, human; conditions: 0-0.8 μM with Paclitaxel, 48 h
Procedure: Three different types of breast cancer cells were contacted with varying concentrations of z-Leu-Leu-Nle-CHO (0-0.8 μM) and the mitotic poison Paclitaxel (0.01-1 μM). MDA-MB231 cells were obtained from ATCC (Rockville, Md.). T47D:C42 and T47D:A18 cells were a kind gift of Debra Tonetti (University of Illinois-Chicago). MDA-MB231 cells were cultured in DMEM medium with 10% FBS. T47D:C42 and T47D:A18 cells were propagated in RPMI 1640 with 10% FBS, 100 μM non-essential amino acid and 6 ng/ml insulin. Gamma-secretase inhibitor z-Leu-Leu-Nle-CHO (Calbiochem 565750) was dissolved in DMSO, aliquoted and stored at −80° C. Paclitaxel (Sigma, St. Louis Mo.) was dissolved in DMSO, aliquoted and stored at −80° C.
To determine whether z-Leu-Leu-Nle-CHO treatment potentiates the effect of Paclitaxel on human breast cancer cells, MDA-MB231, T47D:C42 and T47D:A18 cells were treated for 48 h with 0-0.8 μM z-Leu-Leu-Nle-CHO and various concentrations of Paclitaxel (0.008-1 μM) Following the z-Leu-Leu-Nle-CHO and Paclitaxel treatment, the cells were tested for growth inhibition as described above in Example 13.

C8161 melanoma tumors = assay: C8161 melanoma xenograft in Nude mice, peri-tumoral bortezomib
[2] = tested on: Human Mammary Epithelial Cells (HMEC); assay: Proliferation of normal breast cells (HMEC) after siRNA; assay type: cell-based; conditions: siRNA transfection
Procedure: An invasive, estrogen-independent breast cancer cell line that spontaneously expresses high levels of Notch-1 and -4, MDA-MB231, and normal human breast cells were used to investigate whether inhibition of Notch activation or expression affects the biological behavior of breast cancer cells. […] Sequence specificity was determined by BLAST searches which determined the uniqueness of the sequences. […] Transfected cells were identified by Streptavidin-horseradish peroxidase staining (Vectastain) and counted. […]
Cytotoxicity and growth of transfected cells were estimated by a standard assay used for cancer drug screening, through the total amount of TCA-precipitated cell proteins after drug treatment (Likhitwitayawuid, K et al., 1993, J Nat Prod 56:30-38): 200 μl of cell suspension (10^5 cells/ml) were added to each well in a 96-well plate. […] Plates were shaken for 5-10 minutes and OD at 490 nm (OD490) was recorded via ELISA reader. […] After removal of the non-invading cells from the interior of the inserts, stained invading cells were lysed in 10% acetic acid and OD595 was determined.

CCCC[C@@H](C=O)NC(=O)[C@H](CC(C)C)NC(=O)[C@H](CC(C)C)NC(=O)OCc1ccccc1 [z-Leu-Leu-Nle-CHO, N-benzyloxycarbonyl-leucyl-leucyl-norleucinal] (Cbz-Leu-Leu-[Nle]-aldehyde)
effect on Paclitaxel cell growth inhibition [1]: potentiated the effects of Paclitaxel on cell growth inhibition

CC(C)C[C@H](NC(=O)[C@H](Cc1ccccc1)NC(=O)c1cnccn1)B(O)O [bortezomib, N-(2-pyrazine)carbonyl-L-phenylalanine-L-leucine boronic acid]
tumor growth (C8161 melanoma tumors; 1.25 mg/kg or 2.5 mg/kg, four peri-tumoral injections, compared to PBS): regression of melanoma tumors occurred
tumor weight (C8161 melanoma tumors; 1.25 mg/kg versus PBS, day 20): significant (p<0.01) reduction in tumor weight
histological appearance of tumor (H&E) (C8161 melanoma tumors; 2.5 mg/kg): scattered apoptotic C8161 cells are present
tumor weight (C8161 melanoma tumors; 2.5 mg/kg dose compared with 1.25 mg/kg): no further reduction was apparent

5′-AAGTGTCTGAGGCCAGCAAGA-3′ [Notch-1 siRNA]
proliferation [2]: inhibits proliferation of normal breast cells
